In patent US12584915B2, “Glyphosate biosensor” (priority 2019, dated 2026):
Like-named read-outs stand apart in the source and are kept apart here.

B1: E177N (protein)
chain: EEQEKALNFGIISTESQQNLKPQWTPFLQDMEKKLGVKVNAFFAPDYAGIIQGMRFNKVDIAWYGNLSAMEAVDRANGQVFAQTVAADGSPGYWSVLIVNKDSPINNLNDLLAKRKDLTFGNGDPCSTSGFLVPGYYVFAKNNISASDFKRTVNAGHETNALAVANKQVDVATNNTNNLDKLKTSAPEKLKELKVIWKSPLIPGDPIVWRKNLSETTKDKIYDFFMNYGKTPEEKAVLERLGWAPFRASSDLQLVPIRQLALFKEMQGVKSNKGLNEQDKLAKTTEIQAQLDDLDRLNNALSAMSSVSKAVQ
B2: E177NΔ (protein)
chain: EEQEKALNFGIISTESQQNLKPQWTPFLQDMEKKLGVKVNAFFAPDYAGIIQGMRFNKVDIAWYGNLSAMEAVDRANGQVFAQTVAADGSPGYWSVLIVNKDSPINNLNDLLAKRKDLTFGNGDPCSTSGFLVPGYYVFAKNNISASDFKRTVNAGHETNALAVANKQVDVATNNTNNLDKLKTSAPEKLKELKVIWKSPLIPGSPIVWRKNLSETTKDKIYDFFMNYGKTPEEKAVLERLGWAPFRASSDLQLVPIRQLALFKEMQGVKSNKGLNEQDKLAKTTEIQAQLDDLDRLNNALSA

Experiments:
WT (SEQ ID NO: 5) EcPhnD = biological target: T1, WT (SEQ ID NO: 5) EcPhnD (Escherichia coli, UniProt P16682, N152C); assay: biochemical; format: binding, E. coli
T1 construct: made in house; host or cells: E. coli BL21 DE3
Experimental: (§1) Fluorescent screening and data Analysis. All fluorescence measurements were collected on a SpectraM2 fluorescence spectrometer at 22° C. Acrylodan excitation was set-up at 359 nm and an emission sweep was collected between 400-600 nm. Coumarin conjugated PhnD was excited at 419 nm and an emission spectrum was collected between 430-520 nm. Titrations were performed by increasing concentration of ligand and monitoring the changes in fluorescence intensity at 465 nm for coumarin conjugates or the ratio of fluorescence at 570 nm/450 nm. Error bars represent the standard deviation from three individual titrations. The fluorescence intensity at each wavelength was measured three times for each ligand concentration and the average of the reading was calculated. The ratio of the two averages from each of the three titrations was used to calculate the standard deviation. Kd values were determined by fitting the titration data to the following single binding isotherm equation using Kaleidagraph, where F is the observed fluorescence at a certain ligand concentration [L], Fo is the fluorescence in the absence of ligand, and Fmax is the fluorescence at saturating ligand concentrations.

PND177NΔ (SEQ ID NO: 2) [1] = biological target: T2, PND177NΔ (SEQ ID NO: 2) (Escherichia coli, UniProt P16682, E203N/N152C); assay: biochemical; format: binding, E. coli; conditions: for affinity of the sensor for the ligand, in words: PhnD-E177NΔ sensor
T2 construct: made in house; host or cells: E. coli BL21 DE3
From the text: (§2) To determine the Kd values, the ratio of fluorescence between two wavelengths (570 nm/450 nm) was monitored as a function of increasing ligand concentrations (FIGS. 2 and 3). The titration data were fit to a single binding isotherm equation (eq. 1), where R is defined as the fluorescence ratio at a given ligand concentration [L], R0 is the fluorescence ratio in the absence of ligand and Rmax is the fluorescence ratio at saturating ligand concentrations.
as §1

PND177NΔ (SEQ ID NO: 2) [2] = assay: biochemical; format: binding, E. coli; conditions: PhnD-E177NΔ sensor vs wild type
From the text: as §2, §1

EcPhnD = EcPhnD (Escherichia coli, UniProt P16682); conditions: cited from earlier work
[3] = Fluorescence titration of acrylodan-labelled PhnD variants with glyphosate; format: binding
From the text: The fluorescent reporter group attached to PhnD changes its emission properties in response to glyphosate binding which can be observed using fluorescent spectroscopy. This allows detection of a ligand (in this case glyphosate), where fluorescence emission can be used to determine the concentration of glyphosate in solution. Two main types of data were collected, Apo vs Saturated spectra showing fluorescence emission with and without glyphosate (not shown), and the other type was titrations done with increasing glyphosate concentrations to determine the Kd value for each mutant for glyphosate.
The purified, fluorescently-labeled mutants were tested for their ability to bind to glyphosate. Kd values were determined by monitoring the changes in fluorescence as a function of increasing ligand concentrations. Table 1 provides dissociation constants (Kd values) of different PhnD variants for glyphosate. All mutants contain a cysteine at position 126 for attachment of acrylodan. Values were obtained by monitoring fluorescence change as a function of ligand concentration using eq. 1.
as §2, with “Importantly, the change in fluorescence associated with ligand binding is ratiometric with a larger decrease in emission at lower wavelengths. To” for “To”
Fluorescent screening and data Analysis. All fluorescence measurements were collected on a SpectraM2 fluorescence spectrometer at 22° C. […] Titrations were performed by increasing concentration of ligand and monitoring the changes in fluorescence intensity at 465 nm for coumarin conjugates or the ratio of fluorescence at 570 nm/450 nm. […]

[4] = WT (SEQ ID NO: 5), read-out: WT Kd
[5] = PND177NΔ (SEQ ID NO: 2), acrylodan, ratio 570 nm/450 nm, read-out: PND177NΔ Kd

T1 sequence (P16682 27-338 N152C): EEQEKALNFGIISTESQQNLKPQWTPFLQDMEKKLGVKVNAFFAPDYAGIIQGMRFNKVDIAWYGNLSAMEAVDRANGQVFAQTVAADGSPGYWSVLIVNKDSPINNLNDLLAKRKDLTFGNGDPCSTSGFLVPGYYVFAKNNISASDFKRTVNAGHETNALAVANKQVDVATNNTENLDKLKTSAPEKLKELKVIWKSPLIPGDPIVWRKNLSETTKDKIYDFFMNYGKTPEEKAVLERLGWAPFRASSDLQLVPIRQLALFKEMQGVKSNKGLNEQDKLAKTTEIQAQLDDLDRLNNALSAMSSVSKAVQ
Chain of EcPhnD (P16682 27-338): as the sequence (P16682 27-338 N152C) above, with C126N counted along it

| Molecule | Kd (WT (SEQ ID NO: 5) EcPhnD; [4]) [µM] | Kd (PND177NΔ (SEQ ID NO: 2) [1]; [5]) [µM] | affinity of the sensor for the ligand, in words (PND177NΔ (SEQ ID NO: 2) [1]) | fold increase in affinity for glyphosate over the wild-type protein [3] | other results |
| --- | --- | --- | --- | --- | --- |
| NCCP(=O)(O)O [2-Aminoethyl Phosphate (2-AEP), 2-Aminoethyl Phosphonate] | 0.002 | 5.61 |  |  | reduction of affinity compared to the wild-type protein (PND177NΔ (SEQ ID NO: 2) [2]): more than 3 orders of magnitude; Kd (EcPhnD; natural ligand, background statement, read-out: Kd of PhnD for 2-AEP): ~0.005 µM |
| O=C(O)CNCP(=O)(O)O [Glyphosate] |  |  |  |  | Kd (WT (SEQ ID NO: 5) EcPhnD): 650 µM; Kd (PND177NΔ (SEQ ID NO: 2) [1]): 4.29 µM; Kd (EcPhnD; previous research, read-out: Kd of EcPhnD for glyphosate): ~650 µM |
| Arsenate | 230 | 10.7 | moderate affinities |  |  |
| Phosphate | 260 | 26.1 | moderate affinities |  |  |
| B1 |  |  |  | 80 fold |  |
| B2 |  |  |  | over 150 fold | fluorescence change associated with glyphosate binding ([3]; saturating glyphosate (FIG. 6)): large decrease in fluorescence |
